Activity, IC50 and EC50 data for 2 compounds are collected here from ChEMBL document CHEMBL1773033, “Cyclic lactam hybrid α-MSH/Agouti-related protein (AGRP) analogues with nanomolar range binding affinities at the human melanocortin receptors” (Bioorg Med Chem Lett, 2011).

Positions of bridges follow the written chain, without caps; N, C: chain ends. Non-standard residues stand in square brackets, D forms with d. Residues, ends and D or L forms follow the SMILES beside them.

The target of assay [1] is T1, Melanocyte-stimulating hormone receptor (Homo sapiens, UniProt Q01726). The assay is described as follows: Agonist activity at human MC1R expressed in HEK293 cells assessed as increase in intracellular cAMP level at 10 uM after 3 mins by luminescence counter relative to Ac-Nle-c[Asp-His-D-Phe-Arg-Trp-Lys]-NH2. The class given is functional, cell-based.
Target sequence in this assay (Q01726 whole entry, looked up): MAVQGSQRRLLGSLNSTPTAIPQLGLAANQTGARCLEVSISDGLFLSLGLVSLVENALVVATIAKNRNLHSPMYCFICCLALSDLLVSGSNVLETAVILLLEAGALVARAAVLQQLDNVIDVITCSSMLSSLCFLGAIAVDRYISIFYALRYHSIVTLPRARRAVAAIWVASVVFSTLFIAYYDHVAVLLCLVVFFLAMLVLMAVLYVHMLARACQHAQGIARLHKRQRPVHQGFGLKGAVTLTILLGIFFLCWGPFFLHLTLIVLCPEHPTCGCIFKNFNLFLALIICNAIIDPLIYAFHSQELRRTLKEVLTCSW
In assay [2] the target is T2, Melanocortin receptor 5 (Homo sapiens, UniProt P33032). The assay can be described thus: Displacement of [125I]-NDP-alpha-MSH from human MC5R expressed in HEK293 cells at 10 uM after 40 mins by Wallac 1470 gamma counting relative to Ac-Nle-c[Asp-His-D-Phe-Arg-Trp-Lys]-NH2. The format is cell-based. (In a radioligand displacement assay an active substance lowers the binding of a labelled ligand.)
T2 sequence (P33032 whole entry): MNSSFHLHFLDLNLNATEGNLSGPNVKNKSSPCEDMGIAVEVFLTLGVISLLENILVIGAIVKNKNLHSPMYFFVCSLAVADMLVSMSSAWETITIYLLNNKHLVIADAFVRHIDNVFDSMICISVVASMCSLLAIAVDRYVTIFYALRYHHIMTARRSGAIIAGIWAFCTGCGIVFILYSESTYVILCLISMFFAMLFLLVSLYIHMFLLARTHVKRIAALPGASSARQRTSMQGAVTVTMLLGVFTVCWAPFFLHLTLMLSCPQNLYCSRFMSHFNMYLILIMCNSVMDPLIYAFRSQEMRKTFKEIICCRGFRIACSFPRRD

In assay [3] the target is T3, Melanocortin receptor 4 (Homo sapiens, UniProt P32245). The assay is described as follows: Agonist activity at human MC4R expressed in HEK293 cells assessed as increase in intracellular cAMP level at 10 uM after 3 mins by luminescence counter relative to Ac-Nle-c[Asp-His-D-Phe-Arg-Trp-Lys]-NH2. The class given is functional, cell-based. In general terms: Changes in cAMP serve as a functional read-out for many G protein-coupled receptors.
T3 sequence (P32245 whole entry): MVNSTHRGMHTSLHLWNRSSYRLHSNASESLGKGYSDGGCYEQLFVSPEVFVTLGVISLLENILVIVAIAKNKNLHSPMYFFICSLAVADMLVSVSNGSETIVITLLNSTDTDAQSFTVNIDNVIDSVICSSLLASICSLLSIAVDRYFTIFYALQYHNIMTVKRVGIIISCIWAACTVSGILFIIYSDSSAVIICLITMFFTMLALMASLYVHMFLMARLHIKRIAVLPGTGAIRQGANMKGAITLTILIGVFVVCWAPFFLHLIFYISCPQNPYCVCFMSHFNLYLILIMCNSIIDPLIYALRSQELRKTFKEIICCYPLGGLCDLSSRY

For assay [4], the target named is T3, Melanocortin receptor 4. The assay is described as follows: Displacement of [125I]-NDP-alpha-MSH from human MC4R expressed in HEK293 cells at 10 uM after 40 mins by Wallac 1470 gamma counting relative to Ac-Nle-c[Asp-His-D-Phe-Arg-Trp-Lys]-NH2. The class given is cell-based.
In assay [5] the target is T4, Melanocortin receptor 3 (Homo sapiens, UniProt P41968). The assay can be described thus: Agonist activity at human MC3R expressed in HEK293 cells assessed as increase in intracellular cAMP level at 10 uM after 3 mins by luminescence counter relative to Ac-Nle-c[Asp-His-D-Phe-Arg-Trp-Lys]-NH2. The class given is functional, cell-based.
T4 sequence (P41968 whole entry): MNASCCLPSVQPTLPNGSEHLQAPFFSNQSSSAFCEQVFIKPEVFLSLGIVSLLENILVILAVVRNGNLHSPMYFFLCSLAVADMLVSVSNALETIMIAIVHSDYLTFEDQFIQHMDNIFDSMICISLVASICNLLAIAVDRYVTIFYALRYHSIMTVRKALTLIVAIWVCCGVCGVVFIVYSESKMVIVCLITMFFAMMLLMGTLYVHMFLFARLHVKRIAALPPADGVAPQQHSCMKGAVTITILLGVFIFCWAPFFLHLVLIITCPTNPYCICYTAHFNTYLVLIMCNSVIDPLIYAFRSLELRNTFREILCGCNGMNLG
Assay [6] addresses T3, Melanocortin receptor 4. The assay is described as follows: Displacement of [125I]-NDP-alpha-MSH from human MC4R expressed in HEK293 cells after 40 mins by Wallac 1470 gamma counting. The class given is cell-based.
The target of assay [7] is T2, Melanocortin receptor 5. The assay can be described thus: Displacement of [125I]-NDP-alpha-MSH from human MC5R expressed in HEK293 cells after 40 mins by Wallac 1470 gamma counting. The format is cell-based.
The target of assay [8] is T2, Melanocortin receptor 5. The assay is described as follows: Agonist activity at human MC5R expressed in HEK293 cells assessed as increase in intracellular cAMP level at 10 uM after 3 mins by luminescence counter relative to Ac-Nle-c[Asp-His-D-Phe-Arg-Trp-Lys]-NH2. The class given is functional, cell-based.
Assay [9] has as its target T1, Melanocyte-stimulating hormone receptor. The assay can be described thus: Agonist activity at human MC1R expressed in HEK293 cells assessed as increase in intracellular cAMP accumulation. The format is functional, cell-based.
Target sequence in this assay (Q01726 whole entry): as the sequence (Q01726 whole entry, looked up) above
Assay [10] concerns the target T4, Melanocortin receptor 3. The assay can be described thus: Agonist activity at human MC3R expressed in HEK293 cells assessed as intracellular cAMP accumulation. The class given is functional, cell-based.
In assay [11] the target is T1, Melanocyte-stimulating hormone receptor. The assay is described as follows: Displacement of [125I]-NDP-alpha-MSH from human MC1R expressed in HEK293 cells at 10 uM after 40 mins by Wallac 1470 gamma counting relative to Ac-Nle-c[Asp-His-D-Phe-Arg-Trp-Lys]-NH2. The format is cell-based.
Target sequence in this assay (Q01726 whole entry, looked up): as above
For assay [12], the target named is T4, Melanocortin receptor 3. The assay can be described thus: Displacement of [125I]-NDP-alpha-MSH from human MC3R expressed in HEK293 cells at 10 uM after 40 mins by Wallac 1470 gamma counting relative to Ac-Nle-c[Asp-His-D-Phe-Arg-Trp-Lys]-NH2. The class given is cell-based.
Assay [13] concerns the target T4, Melanocortin receptor 3. The assay is described as follows: Displacement of [125I]-NDP-alpha-MSH from human MC3R expressed in HEK293 cells after 40 mins by Wallac 1470 gamma counting. The class given is cell-based.
In assay [14] the target is T1, Melanocyte-stimulating hormone receptor. The assay can be described thus: Displacement of [125I]-NDP-alpha-MSH from human MC1R expressed in HEK293 cells after 40 mins by Wallac 1470 gamma counting. The class given is cell-based.
Target sequence in this assay (Q01726 whole entry): as the sequence (Q01726 whole entry, looked up) above
For assay [15], the target named is T2, Melanocortin receptor 5. The assay is described as follows: Agonist activity at human MC5R expressed in HEK293 cells assessed as intracellular cAMP accumulation. The format is functional, cell-based.
Assay [16] has as its target T3, Melanocortin receptor 4. The assay is described as follows: Agonist activity at human MC4R expressed in HEK293 cells assessed as intracellular cAMP accumulation. The class given is functional, cell-based.

With `CC(=O)N[C@H]1CC(=O)NCCCC[C@@H](C(N)=O)NC(=O)[C@@H](CCCNC(=N)N)NC(=O)[C@H](Cc2ccccc2)NC(=O)[C@H](Cc2c[nH]c3ccccc23)NC(=O)[C@H](CCCNC(=N)N)NC1=O` (Ac-DRWF[dR]K-NH2; lactam 1-6), the Activity in assay [1], in assay [2], in [3], in assay [4], in assay [5] and in [8] was 0% in each case. The Activity in assay [11] and in [12] was 0% each time. Moreover, the IC50 result in assay [6], in assay [7], in assay [13] and in assay [14] was “Not Active” in each case. The EC50 entry in [9], in [10], in [15] and in assay [16] was “Not Active” throughout.
As for `CC(=O)N[C@H]1CC(=O)NCCCC[C@@H](C(N)=O)NC(=O)[C@@H](CCC(N)=O)NC(=O)[C@H](Cc2ccccc2)NC(=O)[C@H](Cc2c[nH]c3ccccc23)NC(=O)[C@H](CCCNC(=N)N)NC1=O` (Ac-DRWF[dQ]K-NH2; lactam 1-6), the Activity in [1], in assay [2], in [3], in assay [4], in assay [5] and in assay [8] was 0% throughout. For the same compound, the Activity in assay [11] and in assay [12] was 0% in each case. The IC50 result in [6], in assay [7], in [13] and in assay [14] was “Not Active” each time. The EC50 result in assay [9], in assay [10], in assay [15] and in assay [16] was “Not Active” each time.
